The target in one assay is Rac-1 (Homo sapiens (Human), UniProt P63000). The assay is described as follows: Rac inhibition assay (labeled GTP). It is filed as binding. The following applies: read-out: Rac-1 % Inh.
The next assay addresses KRas G12D mutant protein (Homo sapiens (Human), UniProt P01116, G12D). The assay is described as follows: Ras GTP binding domain inhibition assay (labeled GTP). Particulars: at 20 μM; read-out: KRas G12D % Inh. The method, then: The following method was developed as specific assay for KRas G12D mutant protein.
Buffer-I: • 50 mM Tris, pH 7.5 • 150 mM NaCl (optional) • 1 mM MgCl2 • 1 mM DTT. • KRas G12D mutant protein was expressed as a His-tagged protein. Purified His-KRas G12D protein was diluted in buffer-I to a final concentration of 3-10 μg/ml. • 200 μl of the diluted His-KRas G12D protein was added to a nickel coated 96 well plate and incubated overnight at 4° C. • The next day, wells were washed 3× in 200 μl of Buffer-I. • Then 200 μl of Buffer-I were added to each well in the presence of 1% DMSO. • Tested compounds were added to the protein-coated wells at a concentration of 20 μM, and incubated for 3 hours at room temperature. While performing IC50 measurements a serial dilution of all tested concentrations was prepared.
Then 22 μl of Cy3-GTP or Cy5-GTP was added to each well. The labeled GTP was incubated for 45 min. at room temperature. • Following GTP incubation, wells were washed 3× in Buffer-I, and 200 μl of Buffer-I were added to each well. • Following washes, the amount of bound labeled-GTP was measured with an Eppendorf AF2200 plate reader.

For a further assay, the target named is Rho-A (Homo sapiens (Human), UniProt P61586). The assay is described as follows: Rho inhibition assay (labeled GTP). It is filed as binding. Particulars: read-out: Rho-A % Inh.
Assay [1] has as its target KRas G12D/Q61H double mutant (Homo sapiens (Human), UniProt P01116, G12D/Q61H). Kind of assay: Ras GTP binding domain inhibition assay (labeled GTP). The following applies: at 20 μM; read-out: KRas G12D Q61H % Inh. In a few lines: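 Fluorescence read-out of Cy3-/Cy5-GTP remaining bound to nickel-immobilized His-KRas after washes. Protein was coated overnight at 4° C, then exposed to compound for 3 h at room temperature before a 45 min labeled-GTP incubation.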

Sequence of Rho-A (P61586 whole entry, the tested form may be a part): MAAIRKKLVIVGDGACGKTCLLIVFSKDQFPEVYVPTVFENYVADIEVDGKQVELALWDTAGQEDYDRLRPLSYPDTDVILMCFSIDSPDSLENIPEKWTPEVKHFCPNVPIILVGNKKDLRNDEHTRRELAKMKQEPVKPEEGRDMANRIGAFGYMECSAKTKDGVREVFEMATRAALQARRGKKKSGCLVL
Sequence of KRas G12D/Q61H double mutant (P01116-2 other isoform, or with tags, fused parts or gaps G12D/Q61H): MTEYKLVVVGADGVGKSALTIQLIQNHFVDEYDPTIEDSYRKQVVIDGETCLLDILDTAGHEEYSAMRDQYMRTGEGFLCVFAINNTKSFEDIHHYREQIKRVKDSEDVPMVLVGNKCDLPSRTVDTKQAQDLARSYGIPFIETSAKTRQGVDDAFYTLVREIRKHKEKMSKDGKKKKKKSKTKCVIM
Sequence of KRas G12D mutant protein (P01116-2 other isoform, or with tags, fused parts or gaps G12D): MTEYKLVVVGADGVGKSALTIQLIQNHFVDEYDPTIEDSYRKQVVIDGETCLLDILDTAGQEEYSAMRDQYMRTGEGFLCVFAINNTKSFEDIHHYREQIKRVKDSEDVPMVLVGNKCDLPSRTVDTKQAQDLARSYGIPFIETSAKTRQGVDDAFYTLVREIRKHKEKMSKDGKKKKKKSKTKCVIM

`CC(C)Oc1ccc(-c2csc3c(O)nc(-c4nccn4C)nc23)cc1F` [drawing 3927]: the inhibition at 20 µM at Rac-1 lay within 51 to 75%; on KRas G12D mutant protein it was 25 to 50%; on Rho-A, 25 to 50%.

As to `COC1CCN(c2nc(-c3nccn3C)nc3sc(-c4ccccc4)c(-c4ccccc4)c23)C1` (stereo not drawn) [drawing 3889], the inhibition at 20 µM on Rac-1 was 25 to 50%; at KRas G12D mutant protein, 51 to 75%; at Rho-A, 0%.

Consider `CCN(CC)CCOc1nc(-c2nccn2C)nc2sc(-c3ccccc3)c(-c3ccccc3)c12` [drawing 3891], for which the inhibition at 20 µM is 1 to 25% on Rac-1, 25 to 50% at KRas G12D mutant protein and 1 to 25% at Rho-A.

As to `Cn1ccnc1-c1nc(O)c2scc(-c3ccccc3)c2n1` [drawing 3932], the inhibition at 20 µM on Rac-1 fell in the range of 51 to 75%; at KRas G12D mutant protein, 51 to 75%; at Rho-A, 25 to 50%.

For `Cn1ccnc1-c1nc(O)c2scc(-c3ccc(C(C)(C)C)cc3)c2n1` [drawing 3937], the inhibition at 20 µM at Rac-1 is 25 to 50%; at KRas G12D mutant protein, 1 to 25%; at Rho-A, 25 to 50%.

On to `COCCNc1nc(-c2ccncn2)nc2sc(-c3ccccc3)c(-c3ccccc3)c12` [drawing 3892], for which the results for the inhibition at 20 µM on Rac-1, on KRas G12D mutant protein and at Rho-A were 1 to 25%, 0% and 1 to 25%, respectively.

For `Cn1ccnc1-c1nc(O)c2sc(-c3ccccc3)c(-c3cccc(C(F)(F)F)c3)c2n1` [drawing 3910], the figures for the inhibition at 20 µM at Rac-1, at KRas G12D mutant protein and on Rho-A were 1 to 25%, 0% and 0%, respectively.

On to `Cn1ccnc1-c1nc(O)c2sc(-c3ccccc3)c(-c3ccccc3Cl)c2n1` [drawing 3913], for which the inhibition at 20 µM on Rac-1, at KRas G12D mutant protein and at Rho-A was 51 to 75% each time.

Turning to `Cc1sc2c(O)nc(-c3nccn3C)nc2c1-c1ccc(OCC(C)C)nc1` [drawing 3918], the inhibition at 20 µM on Rac-1 was 25 to 50%; on KRas G12D mutant protein, 1 to 25%; at Rho-A, 1 to 25%.

For `COCCNc1nc(-c2nccn2C)nc2sc(-c3ccccc3)c(-c3ccccc3Cl)c12` [drawing 3898], the inhibition at 20 µM at Rac-1, on KRas G12D mutant protein and on Rho-A was 25 to 50% throughout.

On to `CC(O)CNc1nc(-c2nccn2C)nc2sc(-c3ccccc3)c(-c3ccccc3)c12` (stereo not drawn) [drawing 3887], for which the inhibition at 20 µM on Rac-1 lay within 25 to 50%; on KRas G12D mutant protein it was 1 to 25%; at Rho-A, 25 to 50%.

Turning to `COc1ccc(-c2csc3c(O)nc(-c4nccn4C)nc23)cn1` [drawing 3931], the inhibition at 20 µM on Rac-1, on KRas G12D mutant protein and at Rho-A was 51 to 75% in each case.

Regarding `Cn1ccnc1-c1nc(O)c2c(-c3ccccc3)c(-c3ccccc3)sc2n1` [drawing 3854], the inhibition at 20 µM (at Rac-1; at Rho-A; in assay [1]) was 1 to 25% each time.

Regarding `Cc1sc2c(O)nc(-c3ccccn3)nc2c1Br` [drawing 3840], the inhibition at 20 µM lay within 25 to 50% at Rac-1, 51 to 75% on Rho-A and 25 to 50% in assay [1].

As for `O=C(c1csc2c(O)nc(-c3ccccn3)nc12)N1CCN(Cc2ccccc2)CC1` [drawing 3651], the inhibition at 20 µM on Rac-1 is 51 to 75%; at Rho-A, 76 to 100%; in assay [1], 25 to 50%.

In the case of `CC(C)(C(=O)Nc1nc(-c2ccccn2)nc2sccc12)c1ccc(C#N)cc1` [drawing 3641], the figures for the inhibition at 20 µM (at Rac-1; on Rho-A; in assay [1]) were 76 to 100%, 51 to 75% and 0%, respectively.

Consider `COc1cnc(CNC(=O)c2csc3nc(-c4ccccn4)nc(N)c23)[nH]c1=O` [drawing 3835], for which the results for the inhibition at 20 µM (at Rac-1; on Rho-A; in assay [1]) were 25 to 50%, 51 to 75% and 25 to 50%, respectively.

For the molecule `COc1ccnc(-c2nc(O)c3c(C(F)(F)F)csc3n2)c1` [drawing 3705], the inhibition at 20 µM at Rac-1 was 51 to 75%; at Rho-A, 51 to 75%; in assay [1], 25 to 50%.

As to `Cc1ccccc1N1CCN(C(=O)c2csc3c(O)nc(-c4ccccn4)nc23)CC1` [drawing 3628], the inhibition at 20 µM lay within 76 to 100% at Rac-1, 76 to 100% at Rho-A and 25 to 50% in assay [1].

Regarding `COc1cc(N2CCN(C(=O)c3csc4c(O)nc(-c5ccccn5)nc34)CC2)cc(OC)c1OC` [drawing 3647], the values for the inhibition at 20 µM (at Rac-1; on Rho-A; in assay [1]) were 1 to 25%, 25 to 50% and 0%, respectively.

`OCC1(c2ccc(-c3nc(-c4ccccn4)nc(-c4ccc(C5(CO)CC5)cc4)c3Oc3ccccc3)cc2)CC1` [drawing 3850]: the inhibition at 20 µM at Rac-1 lay in the range of 25 to 50%; at Rho-A, 25 to 50%; in assay [1], 1 to 25%.

For `COc1ccc(CCNC(=O)c2csc3nc(-c4ccccn4)nc(N4CCOCC4)c23)cn1` [drawing 3634], the inhibition at 20 µM at Rac-1 is 51 to 75%; on Rho-A it was 51 to 75%; in assay [1], 25 to 50%.

Regarding `Oc1nc(-c2ccccn2)nc2c(-c3cncc(C(F)F)c3)csc12` [drawing 3826], the inhibition at 20 µM at Rac-1 is 1 to 25%; on Rho-A, 0%; in assay [1] it was 1 to 25%.

For the molecule `COCCCCNC(=O)c1csc2nc(-c3ccccn3)nc(N(CCOC)CCOC)c12` [drawing 3682], the inhibition at 20 µM is 76 to 100% on Rac-1, 51 to 75% on Rho-A and 0% in assay [1].

Take `N#Cc1cccc(-c2csc3c(O)nc(-c4ccccn4)nc23)c1` [drawing 3822]: the inhibition at 20 µM (at Rac-1; on Rho-A; in assay [1]) was 1 to 25% each time.

As for `Cn1cc(C2CN(C(=O)c3csc4c(O)nc(-c5ccccn5)nc34)CCN2)cn1` (stereo not drawn) [drawing 3666], the values for the inhibition at 20 µM (at Rac-1; at Rho-A; in assay [1]) were 76 to 100%, 76 to 100% and 1 to 25%, respectively.

For the molecule `Oc1nc(-c2ccccn2)nc2c(CC3CCCNC3)csc12` (stereo not drawn) [drawing 3807], the inhibition at 20 µM at Rac-1 lay in the range of 51 to 75%; at Rho-A, 76 to 100%; in assay [1], 25 to 50%.

For `O=C(c1csc2c(O)nc(-c3ccccn3)nc12)N1CCNC(c2ccccc2F)C1` (stereo not drawn) [drawing 3665], the results for the inhibition at 20 µM (at Rac-1; at Rho-A; in assay [1]) were 76 to 100%, 76 to 100% and 25 to 50%, respectively.

In the case of `O=C(c1csc2c(O)nc(-c3ccccn3)nc12)N1CCN(c2cccc(F)c2)CC1` [drawing 3642], the inhibition at 20 µM on Rac-1 is 76 to 100%; on Rho-A it was 76 to 100%; in assay [1], 25 to 50%.

`O=C(NCCc1ccc(O)c(O)c1)c1csc2nc(-c3ccccn3)nc(N3CCOCC3)c12` [drawing 3674]: the inhibition at 20 µM on Rac-1 is 25 to 50%; on Rho-A it was 25 to 50%; in assay [1], 0%.

`COC(=O)c1cc2nc(-c3ccccn3)nc(O)c2s1` [drawing 3779]: the values for the inhibition at 20 µM (at Rac-1; at Rho-A; in assay [1]) were 51 to 75%, 76 to 100% and 51 to 75%, respectively.

As for `O=C(NCCc1nnn[nH]1)c1csc2nc(-c3ccccn3)nc(N3CCOCC3)c12` [drawing 3675], the inhibition at 20 µM at Rac-1 was in the range of 76 to 100%; on Rho-A it was 51 to 75%; in assay [1] it was 1 to 25%.

`N#Cc1ccc(COCC(=O)Nc2ccnc(-c3ccccn3)n2)cc1` [drawing 3685]: the inhibition at 20 µM is 76 to 100% on Rac-1, 51 to 75% at Rho-A and 0% in assay [1].

For `Oc1nc(-c2ccccn2)nc2c(-c3ccccc3)c(-c3ccncc3)sc12` [drawing 3866], the inhibition at 20 µM on Rac-1 was 76 to 100%; on Rho-A, 51 to 75%; in assay [1], 0%.

Regarding `COc1cc(C)c(-c2csc3c(O)nc(-c4ccccn4)nc23)cc1C` [drawing 3741], the results for the inhibition at 20 µM (at Rac-1; on Rho-A; in assay [1]) were 51 to 75%, 25 to 50% and 25 to 50%, respectively.

As for `Oc1nc(-c2ccccn2)nc2cc(-c3ccc(-c4ccccc4)cc3)sc12` [drawing 3877], the inhibition at 20 µM on Rac-1 was 0%; at Rho-A, 1 to 25%; in assay [1], 1 to 25%.

In the case of `COc1ccc(-c2cc3nc(-c4ccccn4)nc(O)c3s2)cc1` [drawing 3881], the figures for the inhibition at 20 µM (at Rac-1; on Rho-A; in assay [1]) were 0%, 1 to 25% and 1 to 25%, respectively.

With `O=C(c1csc2c(O)nc(-c3ccccn3)nc12)N1CCOC(CN2CCOCC2)C1` (stereo not drawn) [drawing 3694], the inhibition at 20 µM on Rac-1 is 76 to 100%; at Rho-A it was 51 to 75%; in assay [1], 1 to 25%.
